Data reported in ChEMBL document CHEMBL5038581, “Design, synthesis, and biological evaluation of novel dual inhibitors targeting lysine specific demethylase 1 (LSD1) and histone deacetylases (HDAC) for treatment of gastric cancer” (Eur J Med Chem, 2021).

How the values were obtained:
CYP3A4 = CYP3A4 (Homo sapiens, UniProt P08684); test: in vitro; conditions: probe testosterone
CYP2D6 = CYP2D6 (Homo sapiens, UniProt P10635); test: in vitro; conditions: probe dextromethorphan
Sequence of CYP2D6 (P10635 whole entry): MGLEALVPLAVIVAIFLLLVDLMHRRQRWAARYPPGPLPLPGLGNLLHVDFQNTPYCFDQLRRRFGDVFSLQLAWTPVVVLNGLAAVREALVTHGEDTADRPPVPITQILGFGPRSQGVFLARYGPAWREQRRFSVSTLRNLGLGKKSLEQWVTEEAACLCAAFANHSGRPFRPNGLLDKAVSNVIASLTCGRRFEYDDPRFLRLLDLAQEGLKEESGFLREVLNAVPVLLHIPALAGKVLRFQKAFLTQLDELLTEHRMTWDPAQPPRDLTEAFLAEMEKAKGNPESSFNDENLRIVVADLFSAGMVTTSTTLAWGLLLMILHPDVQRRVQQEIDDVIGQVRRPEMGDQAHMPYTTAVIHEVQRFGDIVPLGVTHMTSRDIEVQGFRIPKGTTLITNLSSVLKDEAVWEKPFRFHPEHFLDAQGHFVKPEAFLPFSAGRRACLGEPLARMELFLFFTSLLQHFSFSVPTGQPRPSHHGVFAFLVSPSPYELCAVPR

Sequence of CYP3A4 (P08684 whole entry): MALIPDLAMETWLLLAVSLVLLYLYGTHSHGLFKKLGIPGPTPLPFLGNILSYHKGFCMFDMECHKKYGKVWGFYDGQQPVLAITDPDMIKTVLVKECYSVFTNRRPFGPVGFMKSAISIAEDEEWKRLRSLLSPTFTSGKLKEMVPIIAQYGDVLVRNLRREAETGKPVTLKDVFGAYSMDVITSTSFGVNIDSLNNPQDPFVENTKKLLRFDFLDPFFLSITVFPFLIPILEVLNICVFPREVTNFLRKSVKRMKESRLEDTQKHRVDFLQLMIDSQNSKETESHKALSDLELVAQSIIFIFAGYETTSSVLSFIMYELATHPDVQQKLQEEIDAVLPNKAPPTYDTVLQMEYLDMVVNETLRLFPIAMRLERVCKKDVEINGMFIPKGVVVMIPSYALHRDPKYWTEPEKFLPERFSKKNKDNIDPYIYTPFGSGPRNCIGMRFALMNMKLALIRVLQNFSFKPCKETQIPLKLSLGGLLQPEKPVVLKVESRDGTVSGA

SMILES	inhibition at 0.1 µM (CYP3A4) [%]	inhibition at 1 µM (CYP2D6) [%]
CC(=O)N1CCN(c2ccc(OCC3COC(Cn4ccnc4)(c4ccc(Cl)cc4Cl)O3)cc2)CC1 (configuration not stated) [KETOCONAZOLE]	65.9	
C=C[C@H]1C[N@@]2CC[C@H]1C[C@@H]2[C@@H](O)c1ccnc2ccc(OC)cc12 [QUINIDINE]		91.3
